Results: US5338726A, “Endothelin converting enzyme inhibitors” (Abbott Laboratories, priority 1992, dated 1994)
pIC50: −log10 of the molar value. Structures can show the parent of a compound that is named as a salt.

Biological target: solubilized endothelin converting enzyme (P3 from rat lung)
Assay: ECE Inhibitor Screening Assay
Format: biochemical
Conditions: Big ET substrate, 30 minutes at 37° C., HPLC of ET-1 and Big ET, read-out: Inhibition of Endothelin Converting Enzyme IC50
Description: The above mixture without the test compound was used as the control.
Following a 15 minute preincubation at 37° C., benzyl succinate (100 μM), NaOAc, and Big ET (3 μg) were added. The mixture was incubated for 30 minutes at 37° C., followed by addition of pepstatin (40 μM) and 10% TFA to stop the reaction. The mixture was vortexed, centrifuged and the supernatant retained for HPLC determination of Big ET, ET-1 and CTF. […] Percent inhibiton calculations were made with reference to controls based on quantitation of the ET-1 and Big ET peaks at the end of the incubation period.

| SMILES | pIC50 |
| --- | --- |
| CCC(C)C(NC(=O)OC(C)(C)C)C(=O)NC(C(=O)NC(CC(C)C)C(O)CC(=O)NCCC(=O)O)C(C)CC (stereo not drawn) [Example 16, N-Boc-Isoleucyl-Isoleucyl-Statyl-β-Alanyl-OH] | 7.52 |
| CCC(C)C(NC(=O)OC(C)(C)C)C(=O)NC(C(=O)NC(CC(C)C)C(O)CC(=O)NCCCCCO)C(C)CC (stereo not drawn) [Example 7, N-Boc-Isoleucyl-Isoleucyl-Statyl (5-Hydroxyamyl)carboxamide] | 7.17 |
| CCC(C)C(NC(=O)C(CC(C)(C)C)NC(=O)OC(C)(C)C)C(=O)NC(CC(C)C)C(O)CC(=O)O (stereo not drawn) [Example 45, N-Boc-tert-Butylalanyl-Isoleucyl-Statyl-OH] | 7.29 |
| CCC(C)C(NC(=O)C(CC1CCCCC1)NC(=O)OC(C)(C)C)C(=O)NC(CC(C)C)C(O)CC(=O)NCCc1ccccn1 (stereo not drawn) [Example 40, N-Boc-Cyclohexylalanyl-Isoleucyl-Statyl N-(2-(2-Pyridyl)ethyl)Carboxamide] | 8.00 |
| CCC(C)C(NC(=O)OC(C)(C)C)C(=O)NC(C(=O)NC(CC(C)C)C(O)CC(=O)NCCCCCCO)C(C)CC (stereo not drawn) [Example 8, N-Boc-Isoleucyl-Isoleucyl-Statyl (6-Hydroxyhexyl)carboxamide] | 7.41 |
| CCC(C)C(NC(=O)C(CC1CCCCC1)NC(=O)OC(C)(C)C)C(=O)NC(CC(C)C)C(O)CC(=O)O (stereo not drawn) [Example 15, N-Boc-Cyclohexylalanyl-Isoleucyl-Statyl-OH] | 7.33 |
| CCOC(=O)CC(O)C(CC(C)C)NC(=O)C(NC(=O)[C@@H](NC(=O)OC(C)(C)C)C(C)(C)C)C(C)CC (stereo partly drawn) [Example 1, N-{(S)-2-[(tert-Butyloxycarbonyl]amino]-3,3-dimethylbutanoyl}-Isoleucyl-Statyl Ethyl ester] | 7.30 |
| CCC(C)C(NC(=O)C(CC1CCCCC1)NC(=O)OC(C)(C)C)C(=O)N[C@@H](Cc1c[nH]c2ccccc12)C(O)CC(=O)NC(C(=O)O)C(C)C (stereo partly drawn) [Example 23, N-[(4S)-4-(N-Boc-Cyclohexylalanyl-Isoleucyl-Amino)-5-(3-indolyl)-3-hydroxypentanoyl]-Valyl-OH] | 7.62 |
| CC[C@H](C)[C@H](NC(=O)OCc1ccccc1)C(=O)N[C@H](C(=O)NC(CC(C)C)P(=O)(O)CC(=O)OC(C)(C)C)[C@@H](C)CC (stereo partly drawn) [Example 33, [1-[N-Cbz-Isoleucyl-Isoleucyl-Amino]-3-methylbutyl (hydroxy)phosphinyl]acetic acid tert-Butyl ester] | 7.48 |
| CCC(C)C(NC(=O)OC(C)(C)C)C(=O)NC(C(=O)NC(CC(C)C)C(O)CC(=O)NCCCCO)C(C)CC (stereo not drawn) [Example 6, N-Boc-Isoleucyl-Isoleucyl-Statyl (4-Hydroxybutyl)carboxamide] | 7.24 |
| CC[C@H](C)[C@H](NC(C)=O)C(=O)N[C@H](C(=O)N[C@@H](CC1CCCCC1)[C@@H](O)[C@@H](O)CC(C)C)[C@@H](C)CC [Example 27, (2S,3R,4S)-2-(N-Acetyl-Isoleucyl-Isoleucyl-Amino)-1-cyclohexyl-3,4-dihydroxy-6-methylheptane] | 7.54 |

More lines, now with the values ahead:

| pIC50 | SMILES |
| --- | --- |
| 8.15 | CCC(C)C(NC(=O)C(CC(=O)OCc1ccccc1)NC(=O)OC(C)(C)C)C(=O)NC(C(=O)N[C@@H](CC1CCCCC1)[C@@H](O)[C@@H](O)CC(C)C)C(C)CC (stereo partly drawn) [Example 26, (2S,3R,4S)-2-(N-BOC-Aspartyl(β-O-Benzyl)-Isoleucyl-Isoleucyl -Amino)-1-cyclohexyl-3,4-dihydroxy-6-methylheptane] |
| 8.15 | CC[C@H](C)[C@H](NC(=O)OC(C)(C)C)C(=O)N[C@H](C(=O)N[C@@H](CC1CCCCC1)[C@@H](O)[C@@H](O)CC(C)C)[C@@H](C)CC [Example 24, (2S,3R,4S)-2-(N-Boc-Isoleucyl-Isoleucyl-Amino)-1-cyclohexyl-3,4-dihydroxy-6-methylheptane] |
| 8.52 | CCC(C)C(NC(=O)C(CC1CCCCC1)NC(=O)N1CCOCC1)C(=O)N[C@@H](Cc1ccc2ccccc2c1)[C@@H](O)[C@@H](O)CC(C)C (stereo partly drawn) [Example 53, (2S,3R,4S)-2-{[N-(Morpholin-1-yl-carbonyl)-Cyclohexylalanyl-Isoleucyl]amino}-1-(2-naphthyl)-3,4-dihydroxy-6-methylheptane] |
| 7.74 | CCC(C)C(NC(=O)C(CC1CCCCC1)NC(=O)OC(C)(C)C)C(=O)NC(CC(C)C)C(O)CC(=O)NCCN(C)C (stereo not drawn) [Example 41, N-Boc-Cyclohexylalanyl-Isoleucyl-Statyl N-(2-N',N'-Dimethylaminoethyl)Carboxamide] |
| 7.77 | CC[C@H](C)[C@H](NC(=O)CCC(=O)O)C(=O)N[C@H](C(=O)N[C@@H](CC1CCCCC1)[C@@H](O)[C@@H](O)CC(C)C)[C@@H](C)CC [Example 25, (2S,3R,4S)-2-(N-Succinyl-Isoleucyl-Isoleucyl-Amino)-1-cyclohexyl-3,4-dihydroxy-6-methylheptane] |
| 8.00 | CCC(C)C(NC(=O)OC(C)(C)C)C(=O)NC(C(=O)NC(CC(C)C)C(O)CC(=O)N(C)CC(C)C)C(C)CC (stereo not drawn) [Example 52, N-Boc-Isoleucyl-Isoleucyl-Statyl N-Methyl-N-Isobutyl Carboxamide] |
| 8.30 | CC[C@H](C)[C@H](NC(=O)[C@H](C)N(C1CCCCC1)S(=O)(=O)N1CCN(C)CC1)C(=O)N[C@@H](Cc1ccc2ccccc2c1)[C@@H](O)[C@@H](O)CC(C)C [Example 55, (2S,3R,4S)-2-{[N-(4-Methylpiperazin-1-yl-sulfonyl)-Cyclohexylalanyl-Isoleucyl]amino}-1-(2-naphthyl)-3,4-dihydroxy-6-methylheptane] |
| 7.77 | CCOC(=O)CCNC(=O)CC(O)C(CC(C)C)NC(=O)C(NC(=O)C(NC(=O)OC(C)(C)C)C(C)CC)C(C)CC (stereo not drawn) [Example 13, N-Boc-Isoleucyl-Isoleucyl-Statyl-β-Alanyl Ethyl ester] |
| 7.72 | CCOC(=O)CC(O)C(CC(C)C)NC(=O)C(NC(=O)C(CC1CCCCC1)NC(=O)OC(C)(C)C)C(C)CC (stereo not drawn) [Example 12, N-Boc-Cyclohexylalanyl-Isoleucyl-Statyl Ethyl ester] |
| 8.30 | CC[C@H](C)[C@H](NC(=O)[C@H](C)N(C(=O)N(C)CCN(C)C)C1CCCCC1)C(=O)N[C@@H](Cc1ccc2ccccc2c1)[C@@H](O)[C@@H](O)CC(C)C [Example 54, (2S,3R,4S)-2-{[{N-(N,N-Dimethylaminoethyl)-N-methylamino}carbonyl -Cyclohexylalanyl-Isoleucyl]amino}-1-(2-naphthyl)-3,4-dihydroxy-6-methylheptane] |
| 8.15 | CCC(C)C(NC(=O)C(CC1CCCCC1)NC(=O)CCC(=O)O)C(=O)N[C@@H](Cc1ccc2ccccc2c1)[C@@H](O)[C@@H](O)CC(C)C (stereo partly drawn) [Example 48, (2S,3R,4S)-2-{[N-Succinyl-Cyclohexylalanyl-Isoleucyl]amino}-1-(2-naphthyl)-3,4-dihydroxy-6-methylheptane] |
| 8.22 | CCC(C)C(NC(=O)C(CC1CCCCC1)NC(=O)N1CCN(C)CC1)C(=O)N[C@@H](Cc1ccc2ccccc2c1)[C@@H](O)[C@@H](O)CC(C)C (stereo partly drawn) [Example 43, (2S,3R,4S)-2-{[IN-(4-Methylpiperazin-1-yl-carbonyl)-Cyclohexylalanyl-Isoleucyl]amino}-1-(2-naphthyl)-3,4-dihydroxy-6-methylheptane Hydrochloride] |
| 7.70 | CCC(C)C(NC(=O)OC(C)(C)C)C(=O)NC(C(=O)NC(CC(C)C)C(O)CC(=O)NCCc1ccccn1)C(C)CC (stereo not drawn) [Example 47, N-Boc-Isoleucyl-Isoleucyl-Statyl N-(2-(2-Pyridyl)ethyl)Carboxamide] |
